Values joined by “and” are separate entries in the source; they are usually repeats but may differ in a detail not shown here. Equal entries are not always repeated. Where two headings read alike, the source gives them in different places.
What was measured:
[1] = Reducing power assay (FRAC, Fe3+ to Fe2+); settings: 0-1 mg/mL, absorbance 700 nm
Summary of the method: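 Oyaizu method: compound (0–1 mg/mL) incubated with 0.2 M phosphate buffer pH 6.6 and 1% K3Fe(CN)6 at 50 °C for 20 min, then TCA, centrifugation, and 0.1% FeCl3 added to supernatant. Absorbance read at 700 nm; EC50 expressed in mM, BHT as reference.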

[2] = system: P. aeruginosa (ATCC 27853); assay: Antibacterial agar diffusion method (inhibition zone); type: cell-based
Summary of the method: (§1)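 Inhibition zone on top agar after compound application, ampicillin 10 µg/well as standard. For IC50, bacteria (2 ×10^7 CFU/mL, BHI) exposed to compound 60 min at 37 °C with shaking, then diluted and plated 24 h at 37 °C; residual CFU relative to initial inoculum; triplicate means.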

HCT-116 cells = assay: Cell viability (cytotoxicity, LDH release) assay; type: cell-based; settings: Homo sapiens, 24 h; for viability at 100 µg/mL: read-out: percent of viable cells
Summary of the method: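 Human colorectal HCT-116 cells exposed to compounds at 10, 25, 50 and 100 µg/mL in DMEM with 10% FBS for 24 h at 37 °C. LDH released into the supernatant measured at 600 nm; viability given as % of untreated control OD (mean ± SD, n = 3), 0.1% Triton X-100 as positive control.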

[3] = DPPH radical scavenging assay; settings: for IC50: 0.03 to 1 mg/mL, 1 h, mean ± SD, triplicate, read-out: IC50 (mM) for DPPH Scavenging Potency
Summary of the method: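 Ethanolic DPPH mixed with samples at 0.03 to 1 mg/mL, kept 1 h at room temperature in darkness, then absorbance read at 519 nm against compound-free control. Scavenging percentage computed as (1 − Acompound/Acontrol) × 100; IC50 interpolated from scavenging-versus-concentration plot.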

E. faecalis (ATCC 29122) = assay: Antibacterial viability (CFU) assay, IC50; type: cell-based; settings: Enterococcus faecalis, ATCC29122
Summary of the method: as §1

B. subtilis (ATCC 6633) = assay: Antibacterial viability (CFU) assay, IC50; type: cell-based; settings: Bacillus subtilis, ATCC6633, B. subtilis (ATCC 6633)
Summary of the method: as §1

E. coli (ATCC 25966) = assay: Antibacterial viability (CFU) assay, IC50; type: cell-based; settings: Escherichia coli, ATCC25966; E. coil (ATCC 25966)
Summary of the method: as §1

S. aureus (ATCC 25923) = assay: Antibacterial viability (CFU) assay, IC50; type: cell-based; settings: Staphylococcus aureus, ATCC25923
Summary of the method: as §1

S. enteric (ATCC 43972) = assay: Antibacterial viability (CFU) assay, IC50; type: cell-based; settings: read-out: IC50
Summary of the method: as §1

[4] = system: K. pneumonia (ATCC 700603); assay: Antibacterial viability (CFU) assay, IC50; type: cell-based; settings: Klebsiella pneumoniae, ATCC700603
Summary of the method: as §1

[5] = system: S. epidermidis (ATCC 14990); assay: Antibacterial viability (CFU) assay, IC50; type: cell-based; settings: Staphylococcus epidermidis, ATCC14990
Summary of the method: as §1

B. cereus (ATCC 14579) = assay: Antibacterial viability (CFU) assay, IC50; type: cell-based; settings: Bacillus cereus, ATCC14579
Summary of the method: as §1

[6] = system: P. aeruginosa (ATCC 27853); assay: Antibacterial viability (CFU) assay, IC50; type: cell-based; settings: Pseudomonas aeruginosa, ATCC27853
Summary of the method: as §1

[7] = read-out: Mean IC50 (µM) of cytotoxicity
[8] = read-out: Mean IC50 (µg/mL) of cytotoxicity

With `COc1cc(C2C(C#N)=C(N)OC(C)=C2C(=O)OCc2ccccc2)cc(OC)c1OC` (centres unmarked) [4d, 6-Amino-5-cyano-2-methyl-4-(3,4,5-trimethoxy-phenyl)-4H-pyran-3-carboxylic acid benzyl ester] the EC50 [1] was 149 ± 16 µM, the “IZ (mm)” value [2] was 6.5 ± 0.7 mm and the viability at 100 µg/mL (HCT-116 cells) was 11 to 32.5%. The IC50 (HCT-116 cells; [7]) was 75.1 ± 5.09 µM, the IC50 (HCT-116 cells; [8]) was 32.8 ± 2.22 µg/mL and the IC50 [3] was 0.504 ± 0.032 mM. The “DPPH Radical Scavenging Effenciency (%) at 1 mg/mL” value [3] was 65.25% and 65.25 ± 1.77%, the IC50 (E. faecalis (ATCC 29122)) was 29.1 ± 2.27 µM and the IC50 (B. subtilis (ATCC 6633)) was 40.3 ± 1.95 µM. It also gave an IC50 (E. coli (ATCC 25966)) of 88.7 ± 2.52 µM, an IC50 (S. aureus (ATCC 25923)) of 24.4 ± 1.15 µM and an IC50 (S. enteric (ATCC 43972)) of 65.8 ± 2.29 µM. It also gave an IC50 [4] of 72.63 ± 0.69 µM, an IC50 [5] of 26.7 ± 1.15 µM and an IC50 (B. cereus (ATCC 14579)) of 39.5 ± 0.8 µM. It also gave an IC50 [6] of 67.4 ± 1.37 µM.
With `CC1=C(C(=O)OCc2ccccc2)C(c2ccc(C#N)cc2)C(C#N)=C(N)O1` (centres unmarked) [4k, 6-Amino-5-cyano-4-(4-cyano-phenyl)-2-methyl-4H-pyran-3-carboxylic acid benzyl ester] the EC50 [1] was 1560 ± 102 µM, the “IZ (mm)” value [2] was 3.5 ± 0.7 mm and the viability at 100 µg/mL (HCT-116 cells) was 11 to 32.5%. It also gave an IC50 (HCT-116 cells; [7]) of 85.9 ± 7.61 µM, an IC50 (HCT-116 cells; [8]) of 31.9 ± 2.83 µg/mL and an IC50 [3] of 1.05 ± 0.075 mM. For the same compound, the “DPPH Radical Scavenging Effenciency (%) at 1 mg/mL” value [3] was 40.55 ± 2.19%, the IC50 (E. faecalis (ATCC 29122)) was 45.4 ± 0.57 µM and the IC50 (B. subtilis (ATCC 6633)) was 42.1 ± 2.48 µM. The IC50 (E. coli (ATCC 25966)) was 80.2 ± 4.31 µM, the IC50 (S. aureus (ATCC 25923)) was 43.9 ± 0.57 µM and the IC50 (S. enteric (ATCC 43972)) was 75.5 ± 2.42 µM. For the same compound, the IC50 [4] was 77.8 ± 2.96 µM, the IC50 [5] was 50.2 ± 2.48 µM and the IC50 (B. cereus (ATCC 14579)) was 48.1 ± 1.35 µM. For the same compound, the IC50 [6] was 73.2 ± 3.5 µM.
